≈ marks a conversion by molar mass, not a printed value. Counter-ions that a name gives are not always drawn. Marks after values point to notes of the source that are not given here.
Legend:
QGY human hepatoma = test: Growth of QGY human hepatoma transplanted in nude mice; settings: ip × 7qd
Protocol: A549 Human lung cancer cells cryopreserved in liquid nitrogen were recovered, and incubated in a 37 incubator under 5% CO2. After being subcultured, cells in a logarithmic growth stage were distributed with normal saline to be a cell suspension in a concentration of 1-2×10^7 cells/ml. The cell suspension was inoculated into BALB/C nude mice (SPF grade, 18-20 g, 6 weeks old, male) subcutaneously at right axillary. The tumor tissues were aseptically taken from the 2nd generation of xenograft model of A549 human lung cancer in a vigorous growth stage and cut into small uniform pieces in the size of 1-2 mm^3. The right axillary of each nude mouse was inoculated one piece subcutaneously via a trocar. When the inoculated tumor could be touched, the mice were randomly grouped and administered according to the experimental design program. All contacted feed, padding, cages and equipment, etc., should be autoclaved prior to use. The nude mice were fed in a laminar flow rack. Tumor sizes and animal weights were observed and tested dynamically. Mice in each group were sacrificed 3 weeks later or so, and tumors were surgically removed and weighed.
(§3) Q value of antitumor effect in drug combination was calculated according to Jin's formula: Q=Ea+b/(Ea+Eb−Ea×Eb) Wherein Ea+b=the tumor inhibition rate of drug combination, Ea or Eb=the tumor inhibition rate of drug A or drug B, respectively.
QGY human hepatoma cells cryopreserved in liquid nitrogen were recovered, and incubated in a 37 incubator under 5% CO2.

A549 human lung cancer = test: Growth of A549 human lung cancer transplanted in nude mice; format: in vivo, BALB/C nude mice; settings: ip × 7qd
Protocol: The injection of the invention (10 g/100 ml), Cisplatin (Qilu Pharmaceutical Co., Ltd), blank fat emulsion and normal saline

S180 sarcoma = S180 sarcoma transplanted in mice; format: in vivo, Kunmin mice; settings: ip × 2(1, 3)
Protocol: The injection of the invention (10 g/100 ml), Cyclophosphamide (CTX), Mitoxantrone (DHAD), Mitomycin (MMC) and normal saline
Each mouse was inoculated with 0.2 ml of the suspension subcutaneously at the right axilla, and the mice were grouped randomly. The administration began from the next day according to the dosage program in Table 7. […] Weights of tumor were compared and inhibition rates were calculated for each group.

[1] = test system: Bcap-37 human breast cancer; test: Bcap-37 human breast cancer transplanted in nude mice; format: in vivo, BALB/C nude mice; settings: 25 mg/kg, ip × 1
Protocol: The injection of the invention (10 g/100 ml), Docetaxel injection (Taxotere, 20 mg/vial) and normal saline
Bcap-37 human breast cancer: inoculated in BALB/C nude mice (SPF grade), 18-20 g, female
(§1) Tumor blocks of well-grown Bcap-37 human breast cancer were homogenized in normal saline to obtain cell suspensions in the concentration of 1-2×10^7 cells/ml. Each nude mouse was inoculated with 0.2 ml of the suspension at the right axilla subcutaneously, and the mice were grouped randomly. The administration began from the 7th day after the inoculation. 20 Days after the inoculation, the mice were sacrificed. Tumor blocks were taken out and weighed. Differences of tumor weight between each experimental group and the control group were compared, and tumor inhibition rates and Q values were calculated.

[2] = test system: PANC-1 human pancreatic cancer; test: PANC-1 human pancreatic cancer transplanted in nude mice; format: in vivo, BALB/C nude mice; settings: 60 mg/kg, iv × 1
Protocol: as §3
Tumor blocks of well-grown PANC-1 human pancreatic cancer were inoculated subcutaneously in 4-week-old female BALB/C nude mice. The nude mice were grouped randomly and administered. One week after the end of the administration, the mice were sacrificed and dissected. Tumor blocks were taken out and weighed. Differences of tumor weight between each experimental group and the control group were compared and the tumor inhibition rates were calculated.

[3] = test system: FC-3M human prostate cancer; test: FC-3M human prostate cancer transplanted in nude mice; format: in vivo, BALB/C nude mice; settings: iv × 1
Protocol: The injection of the invention (10 g/100 ml), Leuprolide acetate (Lupron) and normal saline
Tumor blocks of well-grown FC-3M human prostate cancer were homogenized in normal saline (1:4). Each nude mouse was inoculated with 0.2 ml of the suspension at the right axilla subcutaneously, and the mice were grouped randomly. The administration began from the next day. 21 Days after the inoculation, the mice were sacrificed. Tumor blocks were taken out and weighed. Differences of tumor weight between each experimental group and the control group were compared and the tumor inhibition rates were calculated.

[4] = test system: A549 (human lung cancer cells); test: Inhibition on human tumor cell lines in MTT method in vitro; format: cell-based
From the text: (§2) (1) Cell lines: PANC-1 (human pancreatic cancer cells), SKOV3 (human ovarian cancer cells), MCF-7 (human breast cancer cells), Bcap-37 (human breast cancer cells), SMMC-7721 (human hepatic cancer cells), HepG-2 (human hepatic cancer cells), A549 (human lung cancer cells) and H460 (human lung cancer cells), storaged and passaged maintainably in Research and Evaluation Center for Pharmacology, Shanghai Institute of Pharmaceutical Industry; The inhibition effects of samples on the above-mentioned cell lines were detected by using MTT method. The specific procedures were as follows: (1) Cell culture: (a) Storaged cells were taken out from the liquid nitrogen, thawed quickly in a 37 water bath, then aseptically transferred into 6 ml of cellular medium in a 10 ml centrifugal tube, and centrifuged at 1000 rpm for 5 min. The supernatant was discarded, then the precipitated cells were re-suspensed in 5-6 ml cellular media by pipetting and transferred into a flask in a 37 incubator for cell culture; (b) Next day, the flask was taken out from the incubator and the used medium was discarded, then the cells were incubated in 5-6 ml fresh medium in the 37 incubator; (c) On the third day, the flask was taken out from the incubator and the used medium was discarded, then 2-3 ml of PBS (pH7.4) was added into the flask with rocking for cleaning it and the used PBS was discarded. […] The flask was capped and placed in a 37 incubator for about 3 min, and the separation of cells from the flask wall was observed under the microscope. 2 ml of cellular medium was added and cells were separated completely from the flask wall by pipetting, then the cell suspension was transferred into 2 separate clean flasks, each containing 5-6 ml medium. The cell suspension was well-distributed by pipetting, then the flask was placed in a 37 incubator. (d) Step (c) was repeated every other day. In the whole cultivation process, adherent cells were not allowed to grow too dense and suspension cells were always maintained at a logarithmic growth stage. (2) Preparation of the sample and the control: A proper amount of sample of Coix seed oil (oil of Job's tears seed) was dissolved in DMSO to obtain a solution in a concentration of 10 mg/ml. […] The correspondingly diluted DMSO solutions, as controls, were added into the wells of the microplate. (4) Cells in a logarithmic growth stage were trypsinized and washed, then re-suspended in the medium containing 10% calf serum. The number of living cells was counted in Trypan blue dye exclusion method and cell suspensions were adjusted into a density of 2×10^5 cell/ml. (5) The cell-contained 96 well flat-bottom microplate was placed in a 37 incubator and cells were incubated under 5% CO2 for 48 h. (6) 20 μl of 5 mg/ml MTT solution was added into each well and cells were incubated continuously in the incubator for 3-4 h. (7) 100 μl of crystal dissolving solution was added into each well and cells were incubated continuously in the incubator overnight, so as to dissolve the resulted formazan crystals sufficiently. Then, the absorbance value was measured at 570 nm for each well. […] The calculation formula was as follows: (1−mean absorbance of experimental wells/mean absorbance of control wells)×100%

[5] = test system: Bcap-37 (human breast cancer cells); test: as above; format: cell-based; settings: Bcap37
From the text: as §2

[6] = test system: H460 (human lung cancer cells); test: as above; format: cell-based; settings: NCI-H460
From the text: as §2

[7] = test system: HepG-2 (human hepatic cancer cells); test: as above; format: cell-based; settings: HepG2
From the text: as §2

[8] = test system: MCF-7 (human breast cancer cells); test: as above; format: cell-based; settings: MCF7
From the text: as §2

[9] = test system: PANC-1 (human pancreatic cancer cells); test: as above; format: cell-based
From the text: as §2

[10] = test system: SKOV3 (human ovarian cancer cells); test: as above; format: cell-based; settings: SK-OV-3
From the text: as §2

[11] = test system: SMMC-7721 (human hepatic cancer cells); test: as above; format: cell-based
From the text: as §2

[12] = test system: MDA-MB-435 human breast cancer; test: MDA-MB-435 human breast cancer transplanted in nude mice; format: in vivo, BALB/C nude mice; settings: 50 mg/kg, ip × 1
Protocol: as §1, with “Each” for “Tumor blocks of well-grown Bcap-37 human breast cancer were homogenized in normal saline to obtain cell suspensions in the concentration of 1-2×10^7 cells/ml. Each”, “18” for “20”

W256 cancer sarcoma = W256 cancer sarcoma transplanted in rats; format: in vivo, Wistar rats
Protocol: The injection of the invention (10 g/100 ml), Cyclophosphamide (CTX) and normal saline
W256 cancer sarcoma: inoculated in Wistar rats, 50-60 g, female
Ascitic fluid of rats with well-grown W256 cancer sarcoma was diluted with normal saline to obtain a cell suspension of about 1-2×10^7 cells/ml. Each rat was inoculated with 0.2 ml of the suspension at the right axilla subcutaneously. The rats were grouped randomly next day and began administration. Two weeks later, animals were sacrificed and dissected to take out the tumor block. Weights of tumor were compared between each experimental group and the control group and tumor inhibition rates were calculated.

LM-3 human hepatoma = LM-3 human hepatoma transplanted in nude mice; settings: ip × 7qd
From the text: When the inoculated tumor could be touched, the mice were randomly grouped and administered according to the experimental design program. All contacted feed, padding, cages and equipment, etc., should be autoclaved prior to use. The nude mice were fed in a laminar flow rack. Tumor sizes and animal weights were observed and tested dynamically. Mice in each group were sacrificed 3 weeks later or so, and tumors were surgically removed and weighed.
LM-3 human hepatoma cells cryopreserved in liquid nitrogen were recovered, and incubated in a 37 incubator under 5% CO2. Other steps were the same as mentioned in 2-B.

COc1cccc2c1C(=O)c1c(O)c3c(c(O)c1C2=O)C[C@@](O)(C(=O)CO)C[C@@H]3O[C@H]1C[C@H](N)[C@H](O)[C@H](C)O1 [Adriamycin]
Inhibition rate % (QGY human hepatoma; 1 mg/kg): 35.48% | Weight of animal start/end: end (QGY human hepatoma; 1 mg/kg): 24.5 | Weight of animal start/end: start (QGY human hepatoma; 1 mg/kg): 21.5 | Weight of tumor (g) x ± SD (QGY human hepatoma; 1 mg/kg): 0.742 ± 0.19 g | Inhibition rate % (QGY human hepatoma; 2 mg/kg): 68.87% | Weight of animal start/end: end (QGY human hepatoma; 2 mg/kg): 23.2 | Weight of tumor (g) x ± SD (QGY human hepatoma; 2 mg/kg): 0.358 ± 0.12 g

N.N.[Cl][Pt][Cl] [Cisplatin]
Inhibition rate % (A549 human lung cancer; 1 mg/kg): 41.07% | Weight of animal (g) start/end: end (A549 human lung cancer; 1 mg/kg): 24.5 g | Weight of animal (g) start/end: start (A549 human lung cancer; 1 mg/kg): 20.3 g | Weight of tumor (g) x ± SD (A549 human lung cancer; 1 mg/kg): 0.772 ± 0.15 g | Inhibition rate % (A549 human lung cancer; 2 mg/kg): 86.03% | Weight of animal (g) start/end: end (A549 human lung cancer; 2 mg/kg): 23.6 g | Weight of animal (g) start/end: start (A549 human lung cancer; 2 mg/kg): 20.3 g | Weight of tumor (g) x ± SD (A549 human lung cancer; 2 mg/kg): 0.183 ± 0.05 g

O=C1c2c(O)ccc(O)c2C(=O)c2c(NCCNCCO)ccc(NCCNCCO)c21 [DHAD, Mitoxantrone]
Inhibition rate % (S180 sarcoma; 2 mg/kg): 51.0% | Weight of tumor (g) x ± SD (S180 sarcoma; 2 mg/kg): 0.77 ± 0.19 g

CC(=O)O[C@@]12CO[C@@H]1C[C@H](O)[C@@]1(C)C(=O)[C@H](O)C3=C(C)[C@@H](OC(=O)[C@H](O)[C@@H](NC(=O)OC(C)(C)C)c4ccccc4)C[C@@](O)([C@@H](OC(=O)c4ccccc4)[C@H]21)C3(C)C [Docetaxel]
Inhibition rate % [1]: 56.80% | Weight of tumor (g) x ± SD [1]: 1.27 ± 0.88 g

Nc1ccn([C@@H]2O[C@H](CO)[C@@H](O)C2(F)F)c(=O)n1 [Gemcitabine, gemcitabine hydrochloride]
Inhibition rate % [2]: 23.04% | Weight of tumor (g) x ± SD [2]: 0.1426 ± 0.078 g

CCNC(=O)[C@@H]1CCCN1C(=O)[C@H](CCCNC(=N)N)NC(=O)[C@H](CC(C)C)NC(=O)[C@@H](CC(C)C)NC(=O)[C@H](Cc1ccc(O)cc1)NC(=O)[C@H](CO)NC(=O)[C@H](Cc1c[nH]c2ccccc12)NC(=O)[C@H](Cc1c[nH]cn1)NC(=O)[C@@H]1CCC(=O)N1 [Lupron, Leuprolide acetate]
Inhibition rate % ([3]; 0.75 ml/kg): 35.1% | Weight of tumor (g) x ± SD ([3]; 0.75 ml/kg): 0.98 ± 0.26 g | Inhibition rate % ([3]; 1.5 ml/kg): 47.68% | Weight of tumor (g) x ± SD ([3]; 1.5 ml/kg): 0.79 ± 0.16 g

CO[C@@]12[C@H](COC(N)=O)C3=C(C(=O)C(C)=C(N)C3=O)N1C[C@@H]1N[C@@H]12 [MMC, Mitomycin]
Inhibition rate % (S180 sarcoma; 1.5 mg/kg): 39.5% | Weight of tumor (g) x ± SD (S180 sarcoma; 1.5 mg/kg): 0.95 ± 0.16 g

CC(=O)O[C@H]1C(=O)[C@@]2(C)[C@H]([C@H](OC(=O)c3ccccc3)[C@]3(O)C[C@H](OC(=O)[C@H](O)[C@@H](NC(=O)c4ccccc4)c4ccccc4)C(C)=C1C3(C)C)[C@]1(OC(C)=O)CO[C@@H]1C[C@@H]2O [Taxol, Paclitaxel]
IC50 [4]: 0.46 µg/mL (≈ 0.539 µM) | IC50 [5]: 0.28 µg/mL (≈ 0.328 µM) | IC50 [6]: 0.49 µg/mL (≈ 0.574 µM) | IC50 [7]: 0.45 µg/mL (≈ 0.527 µM) | IC50 [8]: 0.18 µg/mL (≈ 0.211 µM) | IC50 [9]: 0.44 µg/mL (≈ 0.515 µM) | IC50 [10]: 0.22 µg/mL (≈ 0.258 µM) | IC50 [11]: 0.41 µg/mL (≈ 0.48 µM) | Inhibition rate % [12]: 62.87%

O=P1(N(CCCl)CCCl)NCCCO1 (centres unmarked) [cyclophosphamide, Cyclophosphamide]
Weight of tumor (g) x ± SD (S180 sarcoma; 30 mg/kg): 0.95 ± 0.22 g | Inhibition rate % (S180 sarcoma; 30 mg/kg, listed as CTX): 39.5% | Weight of tumor (g) x ± SD (W256 cancer sarcoma; 10 mg/kg, iv × 2(3, 5)): 2.07 ± 1.11 g | Inhibition rate % (W256 cancer sarcoma; 10 mg/kg, iv × 2(3, 5), listed as CTX): 38.6% | Inhibition rate % (W256 cancer sarcoma; 30 mg/kg, iv × 7): 88.1** % | Weight of tumor (g) x ± SD (W256 cancer sarcoma; 30 mg/kg, iv × 7): 0.40 ± 0.15 g | Inhibition rate % (LM-3 human hepatoma; 15 mg/kg): 27.21% | Weight of animal start/end: end (LM-3 human hepatoma; 15 mg/kg): 25.1 | Weight of animal start/end: start (LM-3 human hepatoma; 15 mg/kg): 20.6 | Weight of tumor (g) x ± SD (LM-3 human hepatoma; 15 mg/kg): 1.110 ± 0.11 g | Inhibition rate % (LM-3 human hepatoma; 30 mg/kg): 84.13% | Weight of animal start/end: end (LM-3 human hepatoma; 30 mg/kg): 25.6 | Weight of animal start/end: start (LM-3 human hepatoma; 30 mg/kg): 20.4 | Weight of tumor (g) x ± SD (LM-3 human hepatoma; 30 mg/kg): 0.242 ± 0.11 g
